One experiment deals with T1, human LXRβ (Homo sapiens, UniProt P55055).
T1 construct: biotin (biotinylated); made in house; host or cells: E. coli (crude extract)
T1 sequence (P55055 1-460): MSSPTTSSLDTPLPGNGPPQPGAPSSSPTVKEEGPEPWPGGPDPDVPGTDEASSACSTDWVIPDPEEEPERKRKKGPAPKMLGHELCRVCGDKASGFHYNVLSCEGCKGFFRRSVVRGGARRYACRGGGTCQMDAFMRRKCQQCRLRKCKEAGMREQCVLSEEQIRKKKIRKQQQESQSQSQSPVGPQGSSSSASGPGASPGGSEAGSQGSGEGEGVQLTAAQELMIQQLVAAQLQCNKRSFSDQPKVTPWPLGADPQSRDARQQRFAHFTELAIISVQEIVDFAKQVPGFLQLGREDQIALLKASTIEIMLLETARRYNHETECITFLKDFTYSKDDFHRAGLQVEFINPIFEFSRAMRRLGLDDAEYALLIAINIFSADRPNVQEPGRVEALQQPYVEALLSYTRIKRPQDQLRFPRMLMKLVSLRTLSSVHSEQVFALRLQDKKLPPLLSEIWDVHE
Put plainly: Ligand-binding test procedure for human LXRβ (3H T0901317 tracer, flash plates). The conditions noted are these: biotinylated hLXRβ from E. coli extract; tracer 3H T0901317. The protocol: I. Ligand-Binding Test Procedure for Human LXRβ.
Receptor source: E. coli extract from cells expressing biotinylated hLXRβ. Extract was made in a similar buffer as above, but with 50 mM TRIS.
(§1) Washed streptavidin and coated flash plates with wash buffer. Diluted receptor extract to give Bmax ˜4000 cpm and add to the wells. Wrapped the plates in aluminum foil and stored them at +4° C. over night.
(§2) Made a dilution series in DMSO of the test ligands. Made a 5 nM solution of the radioactive tracer in buffer. Mixed 250 μl diluted tracer with 5 μl of the test ligand from each concentration of the dilution series. Washed the receptor-coated flash plates. Added 200 μl per well of the ligand/radiolabel mixture to the receptor-coated flash plates. Wrapped the plates in aluminum foil and incubate at +4° C. over night.
(§3) Aspirated wells, and wash the flashed plates. Sealed the plate. Measured the remaining radioactivity in the plate.

The next experiment concerns the target T2, human LXRα (Homo sapiens, UniProt Q13133).
T2 construct: biotin (biotinylated); made in house; host or cells: E. coli (crude extract)
T2 sequence (Q13133 1-447): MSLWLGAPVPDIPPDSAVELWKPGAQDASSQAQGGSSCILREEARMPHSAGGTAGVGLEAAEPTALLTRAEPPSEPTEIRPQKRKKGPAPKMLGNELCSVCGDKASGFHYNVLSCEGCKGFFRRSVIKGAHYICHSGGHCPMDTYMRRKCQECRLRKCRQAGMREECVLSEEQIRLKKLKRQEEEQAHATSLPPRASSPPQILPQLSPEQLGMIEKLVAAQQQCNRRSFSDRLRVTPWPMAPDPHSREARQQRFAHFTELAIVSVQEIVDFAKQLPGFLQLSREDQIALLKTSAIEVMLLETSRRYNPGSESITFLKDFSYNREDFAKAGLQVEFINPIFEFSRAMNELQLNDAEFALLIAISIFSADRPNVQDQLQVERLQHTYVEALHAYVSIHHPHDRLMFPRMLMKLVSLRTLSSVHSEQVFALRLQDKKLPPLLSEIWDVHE
The experiment in a line: Ligand-binding test procedure for human LXRα (3H T0901317 tracer, flash plates). The conditions noted are these: biotinylated hLXRα from E. coli extract; tracer 3H T0901317. The procedure: II. Ligand-Binding Test Procedure for Human LXRα.
Receptor source: E. coli extract from cells expressing biotinylated hLXRα. Extract was made in a similar buffer as above, but with 50 mM TRIS.
as §1, §2, §3

In the case of `CCCS(=O)(=O)c1cccc(Oc2cccc(-c3c(C)nc4c(C(F)(F)F)cccn34)c2)c1` [Example 11, 2-methyl-3-(3-(3-(propylsulfonyl)phenoxy)phenyl)-8-(trifluoromethyl)imidazo[1,2-a]pyridine], the IC50 was 143 nM on human LXRβ and 1480 nM at human LXRα.
On the same counts, the results for `Cc1nc2c(C(F)(F)F)cccn2c1-c1cccc(Oc2cccc(S(=O)(=O)CCC(C)(C)O)c2)c1` [Example 14, 2-methyl-4-[(3-{3-[2-methyl-8-(trifluoromethyl)imidazo[1,2-a]pyridin-3-yl]phenoxy}phenyl)sulfonyl]butan-2-ol] are 525 nM and 6250 nM.
In the same order, the values of `Cc1nc2c(C(F)(F)F)cccn2c1-c1cccc(Oc2cc(F)cc(S(C)(=O)=O)c2)c1` [Example 15, 3-{3-[3-fluoro-5-(methylsulfonyl)phenoxy]phenyl}-2-methyl-8-(trifluoromethyl)imidazo[1,2-a]pyridine] are 119 nM and 1880 nM.
For `CCC(C)S(=O)(=O)c1ccc(Oc2cccc(-c3c(C)nc4c(C(F)(F)F)cccn34)c2)cc1` (stereo not drawn) [Example 16, 3-{3-[4-(sec-butylsulfonyl)phenoxy]phenyl}-2-methyl-8-(trifluoromethyl)imidazo[1,2-a]pyridine], the IC50 is 508 nM at human LXRβ and 4770 nM at human LXRα.
On the same counts, the results for `CCc1nc2c(C(F)(F)F)cccn2c1-c1cccc(Oc2cccc(S(=O)(=O)CCC(C)(C)O)c2)c1` [Example 22, 4-(3-(3-(2-ethyl-8-(trifluoromethyl)imidazo[1,2-a]pyridin-3-yl)phenoxy)phenylsulfonyl)-2-methylbutan-2-ol] are 740 nM and 7130 nM.
Regarding `CCS(=O)(=O)c1cccc(Oc2cccc(-c3c(C(C)C)nc4c(C(F)(F)F)cccn34)c2)c1` [Example 26, 2-isopropyl-3-(3-(3-(ethylsulfonyl)phenoxy)phenyl)-8-(trifluoromethyl)imidazo[1,2-a]pyridine], the IC50 was determined as 5 nM at human LXRβ and 221 nM at human LXRα.
In the same order, the values of `CC(C)c1nc2c(C(F)(F)F)cccn2c1-c1cccc(Oc2cccc(S(=O)(=O)C(C)C)c2)c1` [Example 27, 2-isopropyl-3-(3-(3-(isopropylsulfonyl)phenoxy)phenyl)-8-(trifluoromethyl)imidazo[1,2-a]pyridine] are 8 nM and 144 nM.
In the same order, the values of `CCS(=O)(=O)c1cccc(Oc2cccc(-c3c(Cc4ccccc4)nc4c(C(F)(F)F)cccn34)c2)c1` [Example 29, 2-benzyl-3-(3-(3-(ethylsulfonyl)phenoxy)phenyl)-8-(trifluoromethyl)imidazo[1,2-a]pyridine] are 1.3 nM and 10 nM.
For the molecule `CC(C)S(=O)(=O)c1cccc(Oc2cccc(-c3c(Cc4ccccc4)nc4c(C(F)(F)F)cccn34)c2)c1` [Example 30, 2-benzyl-3-(3-(3-(isopropylsulfonyl)phenoxy)phenyl)-8-(trifluoromethyl)imidazo[1,2-a]pyridine], the figures for the half-inhibitory concentration (IC50) at human LXRβ and at human LXRα were 1.7 nM and 15.8 nM, respectively.
In the same order, the values of `CC(C)c1nc2c(Cl)cccn2c1-c1cccc(Oc2ccc(S(N)(=O)=O)cc2)c1` [Example 39, 4-(3-(8-chloro-2-isopropylimidazo[1,2-a]pyridin-3-yl)phenoxy)benzenesulfonamide] are 3650 nM and 10200 nM.
As to `CCc1nc2c(Cl)cccn2c1-c1cccc(Oc2cccc(S(=O)(=O)N(Cc3ccc(OC)cc3)Cc3ccc(OC)cc3)c2)c1` [Example 42, 3-[3-(8-chloro-2-ethylimidazo[1,2-a]pyridin-3-yl)phenoxy]-N,N-bis(4-methoxybenzyl)benzenesulfonamide], the values for the IC50 on human LXRβ and at human LXRα were 409 nM and 920 nM, respectively.
On to `CCc1nc2c(Cl)cccn2c1-c1cccc(Oc2cccc(S(=O)(=O)N(C)Cc3ccc(OC)cc3)c2)c1` [Example 43, 3-[3-(8-chloro-2-ethylimidazo[1,2-a]pyridin-3-yl)phenoxy]-N-(4-methoxybenzyl)-N-methylbenzenesulfonamide], for which the IC50 on human LXRβ is 14.7 nM; on human LXRα, 39.9 nM.
In the same order, the values of `CCc1nc2c(C#N)cccn2c1-c1cccc(Oc2cccc(S(=O)(=O)N(Cc3ccc(OC)cc3)Cc3ccc(OC)cc3)c2)c1` [Example 45, 3-[3-(8-cyano-2-ethylimidazo[1,2-a]pyridin-3-yl)phenoxy]-N,N-bis(4-methoxybenzyl)benzenesulfonamide] are > 1000 nM and > 1000 nM.
On the same counts, the results for `CCc1nc2c(Cl)cccn2c1-c1cccc(Oc2cccc(S(N)(=O)=O)c2)c1` [Example 47, 3-[3-(8-chloro-2-ethylimidazo[1,2-a]pyridin-3-yl)phenoxy]benzenesulfonamide] are 151 nM and 2140 nM.
For the molecule `CCc1nc2c(C(F)(F)F)cccn2c1-c1ccc(-c2cccc(S(C)(=O)=O)c2)nc1` [Example 87, 2-ethyl-3-{6-[3-(methylsulfonyl)phenyl]pyridin-3-yl}-8-(trifluoromethyl)imidazo[1,2-a]pyridine], the IC50 at human LXRβ was determined as 8330 nM.
On to `CCc1nc2c(C#N)cccn2c1-c1ccc(Oc2cccc(S(C)(=O)=O)c2)cc1` [Example 104, 2-ethyl-3-{4-[3-(methylsulfonyl)phenoxy]phenyl}imidazo[1,2-a]pyridine-8-carbonitrile], for which, on human LXRβ, the IC50 is > 1000 nM.
Still for that read-out and setting: the same measure for `CCc1nc2c(C#N)cccn2c1-c1ccc(Oc2cccc(S(=O)(=O)CC)c2)cc1` [Example 107, 2-ethyl-3-{4-[3-(ethylsulfonyl)phenoxy]phenyl}imidazo[1,2-a]pyridine-8-carbonitrile]: > 1000 nM; for `CCc1nc2c(C#N)cccn2c1-c1cccc(COc2cccc(S(C)(=O)=O)c2)c1` [Example 110, 2-ethyl-3-(3-{[3-(methylsulfonyl)phenoxy]methyl}phenyl)imidazo[1,2-a]pyridine-8-carbonitrile]: > 1000 nM.
As to `CCc1nc2c(Cl)cccn2c1-c1ccc(COc2cccc(S(C)(=O)=O)c2)cc1` [Example 112, 8-chloro-2-ethyl-3-(4-{[3-(methylsulfonyl)phenoxy]methyl}phenyl)imidazo[1,2-a]pyridine], the IC50 at human LXRβ was > 1000 nM.
Same read-out and setting: the figure for `CC(C)c1nc2c(C#N)cccn2c1-c1ccc(Oc2cccc(S(C)(=O)=O)c2)cc1` [Example 123, 2-(1-methylethyl)-3-{4-[3-(methylsulfonyl)phenoxy]phenyl}imidazo[1,2-a]pyridine-8-carbonitrile] is > 1000 nM; for `CCS(=O)(=O)c1cccc(Oc2ccc(-c3c(C(C)C)nc4c(C#N)cccn34)cc2)c1` [Example 124, 3-{4-[3-(ethylsulfonyl)phenoxy]phenyl}-2-(1-methylethyl)imidazo[1,2-a]pyridine-8-carbonitrile] it is > 1000 nM.
In the case of `CS(=O)(=O)c1cccc(Oc2ccc(-c3c(C(F)(F)F)nc4c(C(F)(F)F)cccn34)cc2)c1` [Example 125, 3-{4-[3-(methylsulfonyl)phenoxy]phenyl}-2,8-bis(trifluoromethyl)imidazo[1,2-a]pyridine], the IC50 at human LXRβ was found to be 600 nM.
Same read-out and setting: the same measure for `CN1CCN(Cc2nc3c(C(F)(F)F)cccn3c2-c2cccc(Oc3cccc(S(C)(=O)=O)c3)c2)CC1` [Example 132, 2-[(4-methylpiperazin-1-yl)methyl]-3-{3-[3-(methylsulfonyl)phenoxy]phenyl}-8-(trifluoromethyl)imidazo[1,2-a]pyridine]: > 1000 nM.
The same measure, in the same setting: the figure for `CNCc1nc2c(C(F)(F)F)cccn2c1-c1cccc(Oc2cccc(S(C)(=O)=O)c2)c1` [Example 134, N-methyl-1-[3-{3-[3-(methylsulfonyl)phenoxy]phenyl}-8-(trifluoromethyl)imidazo[1,2-a]pyridin-2-yl]methanamine] is > 1000 nM; for `CC(C)NCc1nc2c(C(F)(F)F)cccn2c1-c1cccc(Oc2cccc(S(C)(=O)=O)c2)c1` [Example 136, N-{[3-{3-[3-(methylsulfonyl)phenoxy]phenyl}-8-(trifluoromethyl)imidazo[1,2-a]pyridin-2-yl]methyl}propan-2-amine] it is > 1000 nM.

One may read the IC50 as the concentration that gives 50% inhibition. Lower therefore signals greater potency.

Values taken from patent US20110112135A1, “Imidazo [1,2-A] Pyridine Compounds” (priority 2007, published 2011).
